Tested on: T.b. brucei (strain 427) bloodstream form parasites
Assay: T.b. brucei single concentration screen (10 μM)
Details: Trypanosoma brucei, read-out: T.b.brucei % viability (10 µM)

CCOc1ccccc1C(=O)Nc1cccc(-c2nc3ncccn3c2C)c1 [MMV019790, CCOc1ccccc1C(=O)Nc2cccc(c2)c3nc4ncccn4c3C]
viability at 10 µM: 103%

Cc1ccc2cc(C3NC(=O)c4ccccc4N3)c(Cl)nc2c1 (stereo not shown) [MMV019807, Cc1ccc2cc(C3NC(=O)c4ccccc4N3)c(Cl)nc2c1]
viability at 10 µM: 113%

O=C(Nc1ccnc(-c2cccnc2)n1)c1cc(C(F)(F)F)cc(C(F)(F)F)c1 [MMV019838, FC(F)(F)c1cc(cc(c1)C(F)(F)F)C(=O)Nc2ccnc(n2)c3cccnc3]
viability at 10 µM: 106%

Cc1nn(C)cc1C(C)Nc1nncc(-c2ccc(C(F)(F)F)cc2)n1 (stereo not shown) [MMV019993, CC(Nc1nncc(n1)c2ccc(cc2)C(F)(F)F)c3cn(C)nc3C]
viability at 10 µM: 104%

COc1cccc(CC(=O)N2CCC(n3c(C)nc4ccc(F)cc43)CC2)c1 [MMV020081, COc1cccc(CC(=O)N2CCC(CC2)n3c(C)nc4ccc(F)cc34)c1]
viability at 10 µM: 99%

CC1CC1C(=O)NC1CCN(CC2(c3ccccc3)CCCCC2)CC1 (stereo not shown) [MMV020120, CC1CC1C(=O)NC2CCN(CC3(CCCCC3)c4ccccc4)CC2]
viability at 10 µM: 109%

CNC(=O)c1cc(S(=O)(=O)N2CCN(c3ccccn3)CC2)cs1 [MMV020136, CNC(=O)c1cc(cs1)S(=O)(=O)N2CCN(CC2)c3ccccn3]
viability at 10 µM: 97%

Cc1cc(C(=O)Nc2ccc(-c3ccccc3)cc2)no1 [MMV020152, Cc1onc(c1)C(=O)Nc2ccc(cc2)c3ccccc3]
viability at 10 µM: 85%

CC(C)NCC(=O)Nc1cccc(C(=O)Nc2cccc(C(F)(F)F)c2)c1 [MMV020165, CC(C)NCC(=O)Nc1cccc(c1)C(=O)Nc2cccc(c2)C(F)(F)F]
viability at 10 µM: 107%

Cc1ccc(NC(=O)c2cc(S(=O)(=O)NC(C)(C)C)ccc2C)nc1 [MMV020289, Cc1ccc(NC(=O)c2cc(ccc2C)S(=O)(=O)NC(C)(C)C)nc1]
viability at 10 µM: 93%

CC(C(=O)N1CCCC1)N1CCN(S(=O)(=O)c2ccc(C(C)(C)C)cc2)CC1 (stereo not shown) [MMV020291, CC(N1CCN(CC1)S(=O)(=O)c2ccc(cc2)C(C)(C)C)C(=O)N3CCCC3]
viability at 10 µM: 95%

Cc1nnc(NC(=O)c2cn(-c3ccccc3)nc2-c2ccccc2C)o1 [MMV020320, Cc1oc(NC(=O)c2cn(nc2c3ccccc3C)c4ccccc4)nn1]
viability at 10 µM: 46%

COc1ccccc1C(C)NCC(=O)Nc1cc(C(F)(F)F)ccc1Cl (stereo not shown) [MMV020321, COc1ccccc1C(C)NCC(=O)Nc2cc(ccc2Cl)C(F)(F)F]
viability at 10 µM: 106%

CC1CCCN(C(=O)C(C)Nc2cc(Cl)ccc2N2CCOCC2)C1 (stereo not shown) [MMV020388, CC(Nc1cc(Cl)ccc1N2CCOCC2)C(=O)N3CCCC(C)C3]
viability at 10 µM: 95%

Cc1ccc(Oc2ccc(NC(=O)CNc3ccccc3N3CCCC3=O)cc2)cc1 [MMV020512, Cc1ccc(Oc2ccc(NC(=O)CNc3ccccc3N4CCCC4=O)cc2)cc1]
viability at 10 µM: 95%

COc1ccccc1CNC(=O)c1cc(C2CC2)nc2c1cnn2C(C)C [MMV020517, COc1ccccc1CNC(=O)c2cc(nc3c2cnn3C(C)C)C4CC4]
viability at 10 µM: 93%

Cc1cc2ccccc2n1CC(=O)N1CC(C(=O)N2CCCCC2)Oc2ccccc21 (stereo not shown) [MMV020520, Cc1cc2ccccc2n1CC(=O)N3CC(Oc4ccccc34)C(=O)N5CCCCC5]
viability at 10 µM: 69%

O=C(NC1CC1)c1ccc(N2CCOc3ccc(Cl)cc32)s1 [MMV020537, Clc1ccc2OCCN(c3ccc(s3)C(=O)NC4CC4)c2c1]
viability at 10 µM: 97%

CC(C)C(NC(=O)Cc1cccc2ccccc12)C(=O)Nc1cccc(C#N)c1 (stereo not shown) [MMV020591, CC(C)C(NC(=O)Cc1cccc2ccccc12)C(=O)Nc3cccc(c3)C#N]
viability at 10 µM: 93%

Cc1noc(C)c1C(=O)N1CCCC(c2[nH]c3c(C)cccc3c2-c2ccncc2)C1 (stereo not shown) [MMV020623, Cc1onc(C)c1C(=O)N2CCCC(C2)c3[nH]c4c(C)cccc4c3c5ccncc5]
viability at 10 µM: 78%

COc1ccc(-c2cncc3ccc(C(=O)NCCCn4ccnc4)nc23)cc1 [MMV020670, COc1ccc(cc1)c2cncc3ccc(nc23)C(=O)NCCCn4ccnc4]
viability at 10 µM: 51%

COc1ccc(Cl)cc1NC(=O)CN(C)C(=O)c1cnn(-c2ccccc2)n1 [MMV020710, COc1ccc(Cl)cc1NC(=O)CN(C)C(=O)c2cnn(n2)c3ccccc3]
viability at 10 µM: 103%

CC(C)(C)c1cc(C(=O)Nc2cccnc2)cc(C(=O)Nc2cccnc2)c1 [MMV020982, CC(C)(C)c1cc(cc(c1)C(=O)Nc2cccnc2)C(=O)Nc3cccnc3]
viability at 10 µM: 83%

CO/C=C(/C(=O)OC)c1ccccc1Oc1cc(Oc2ccccc2C#N)ncn1 [MMV021057, CO\C=C(\C(=O)OC)/c1ccccc1Oc2cc(Oc3ccccc3C#N)ncn2]
viability at 10 µM: 103%

Cc1cc(NCC(C)C)c2n[nH]c(-c3ccccc3)c2n1 [MMV021375, CC(C)CNc1cc(nc2c([nH]nc12)-c1ccccc1)C]
viability at 10 µM: 64%

Cc1cc(NCCc2ccccc2)nc(NC(=N)Nc2ccc(Cl)cc2)n1 [MMV021660, Cc1cc(NCCc2ccccc2)nc(NC(=N)Nc3ccc(Cl)cc3)n1]
viability at 10 µM: 47%

CCN(CC)CCCN1CCN(C(=O)c2cccc(-c3noc(C(F)(F)F)n3)c2)CC1 [MMV022236, CCN(CC)CCCN1CCN(CC1)C(=O)c2cccc(c2)c3noc(n3)C(F)(F)F]
viability at 10 µM: 103%

c1ccc2c(c1)CN(CC1CC1)CC1(CCN(Cc3c[nH]c4cnccc34)CC1)O2 [MMV023183, C(C1CC1)N2Cc3ccccc3OC4(CCN(Cc5c[nH]c6cnccc56)CC4)C2]
viability at 10 µM: 93%

Cc1nc(-c2cccc(NCc3ccccc3)c2)[nH]c1C [MMV023227, Cc1nc([nH]c1C)c2cccc(NCc3ccccc3)c2]
viability at 10 µM: 102%

Nc1ncc(-c2cn[nH]c2)cc1-c1nc2cc(Cl)cnc2[nH]1 [MMV023370, Nc1ncc(cc1c2nc3cc(Cl)cnc3[nH]2)c4cn[nH]c4]
viability at 10 µM: 88%

O=C(NC1CCN(c2ccnc3ccccc23)C1)c1cccc(C(F)(F)F)c1 (stereo not shown) [MMV023388, FC(F)(F)c1cccc(c1)C(=O)NC2CCN(C2)c3ccnc4ccccc34]
viability at 10 µM: 78%

NS(=O)(=O)c1cccc(-c2ccc3ncc(N4CCOCC4)nc3c2)c1 [MMV023860, NS(=O)(=O)c1cccc(c1)c2ccc3ncc(nc3c2)N4CCOCC4]
viability at 10 µM: 110%

CC(C)(C)c1cc(C(=O)N2CCN(c3nccnc3C#N)CC2)n(Cc2ccccc2)n1 [MMV023949, CC(C)(C)c1cc(C(=O)N2CCN(CC2)c3nccnc3C#N)n(Cc4ccccc4)n1]
viability at 10 µM: 115%

O=C(Nc1cccc(-c2ccc(NCCCN3CCCC3)nc2)c1)c1ccccc1 [MMV023953, O=C(Nc1cccc(c1)c2ccc(NCCCN3CCCC3)nc2)c4ccccc4]
viability at 10 µM: 57%

c1cncc(NCc2ccc(-c3cc4ccncc4cc3OC3CCNCC3)s2)c1 [MMV023969, C(Nc1cccnc1)c2ccc(s2)c3cc4ccncc4cc3OC5CCNCC5]
viability at 10 µM: 79%

COc1ccc(-c2cnc3ccc(N4CCCC4)nn23)cc1OC [MMV023985, COc1ccc(cc1OC)c2cnc3ccc(nn23)N4CCCC4]
viability at 10 µM: 91%

NS(=O)(=O)c1cncc(-c2ccc3nccc(-c4cn[nH]c4)c3n2)c1 [MMV024101, NS(=O)(=O)c1cncc(c1)c2ccc3nccc(c4cn[nH]c4)c3n2]
viability at 10 µM: 36%

Cc1ccc(S(=O)(=O)n2cc(-c3ccnc(N)c3)c3cc(Br)cnc32)cc1 [MMV024114, Cc1ccc(cc1)S(=O)(=O)n2cc(c3ccnc(N)c3)c4cc(Br)cnc24]
viability at 10 µM: 52%

CN(C)CCNC(=O)N1CCCN(c2ncnc3cc(-c4ccccc4)sc23)CC1 [MMV024195, CN(C)CCNC(=O)N1CCCN(CC1)c2ncnc3cc(sc23)c4ccccc4]
viability at 10 µM: 79%

O=C(NC1CC1)c1ccc(N2CCC(Cc3ccccc3)CC2)nc1 [MMV024397, O=C(NC1CC1)c2ccc(nc2)N3CCC(Cc4ccccc4)CC3]
viability at 10 µM: 72%

O=C(Nc1cccc(Cl)c1)c1cnc(N2CCN(c3ccncc3)CC2)c(Cl)c1 [MMV024406, Clc1cccc(NC(=O)c2cnc(N3CCN(CC3)c4ccncc4)c(Cl)c2)c1]
viability at 10 µM: 63%

CN(C(=O)c1cc2c(-c3cncnc3)cccc2[nH]1)c1ccccc1 [MMV024443, CN(C(=O)c1cc2c(cccc2[nH]1)c3cncnc3)c4ccccc4]
viability at 10 µM: 59%

Cc1cccc(C(=O)Nc2ccnc(N(C)C3CCN(CC(C)C)CC3)c2)c1 [MMV024829, CC(C)CN1CCC(CC1)N(C)c2cc(NC(=O)c3cccc(C)c3)ccn2]
viability at 10 µM: 56%

O=C(Nc1ccc(N2CCNCC2)nc1)c1oc(-c2ccccc2)nc1C(F)(F)F [MMV024937, FC(F)(F)c1nc(oc1C(=O)Nc2ccc(nc2)N3CCNCC3)c4ccccc4]
viability at 10 µM: 77%

CS(=O)(=O)c1cccc(-c2cnc3[nH]cc(-c4ccc(CCC(=O)O)cc4)c3c2)c1 [MMV026020, CS(=O)(=O)c1cccc(c1)c2cnc3[nH]cc(c4ccc(CCC(=O)O)cc4)c3c2]
viability at 10 µM: 61%

Nc1nccc2ccc(Oc3ccncc3)cc12 [MMV026313, Nc1nccc2ccc(Oc3ccncc3)cc12]
viability at 10 µM: 97%

CCn1ncc2c(NC3CCOCC3)c(CNC(=O)c3ccnn3C)c(C)nc21 [MMV026356, CCn1ncc2c(NC3CCOCC3)c(CNC(=O)c4ccnn4C)c(C)nc12]
viability at 10 µM: 80%

OCc1ccc(-c2cncc(Nc3cccc(Cl)c3)c2)cc1 [MMV026468, OCc1ccc(cc1)c2cncc(Nc3cccc(Cl)c3)c2]
viability at 10 µM: 88%

CC(C)(C)CN1C(=O)C(c2ccccc2)(c2ccccc2)N=C1N [MMV026550, CC(C)(C)CN1C(=NC(C1=O)(c2ccccc2)c3ccccc3)N]
viability at 10 µM: 104%

CC(C)(CN)c1nc(-c2ccc(Cl)c(O)c2)c(-c2ccnc(N)n2)[nH]1 [MMV030734, CC(C)(CN)c1nc(c2ccc(Cl)c(O)c2)c([nH]1)c3ccnc(N)n3]
viability at 10 µM: 33%

CNC(=O)C1Cc2c([nH]c3cc(Cl)ccc23)C2(CCN(CCc3ccccc3)CC2)N1 (stereo not shown) [MMV031011, CNC(=O)C1Cc2c([nH]c3cc(Cl)ccc23)C4(CCN(CCc5ccccc5)CC4)N1]
viability at 10 µM: 106%

FC(F)(F)c1cccc(-c2nc3c(NCc4ccncc4)nccc3[nH]2)c1 [MMV032967, FC(F)(F)c1cccc(c1)c2nc3c(NCc4ccncc4)nccc3[nH]2]
viability at 10 µM: 79%

O=C1COCc2ccc(Br)cc2N1Cc1ccc(C(F)(F)F)cc1 [MMV032995, FC(F)(F)c1ccc(CN2C(=O)COCc3ccc(Br)cc23)cc1]
viability at 10 µM: 113%

c1ccc(Oc2ccc(-c3cc(N4CCOCC4)[nH]n3)cc2)cc1 [MMV045105, C1CN(CCO1)c2cc(n[nH]2)c3ccc(Oc4ccccc4)cc3]
viability at 10 µM: 33%

COc1cc(C(F)(F)F)nc2ccc(C)c(N)c12 [MMV047015, COc1cc(nc2ccc(C)c(N)c12)C(F)(F)F]
viability at 10 µM: 113%

From paper PMC6301270 (MedChemComm, 2018)
